According to ChEMBL document CHEMBL3421582, “Quinofuracins A-E, produced by the fungus Staphylotrichum boninense PF1444, show p53-dependent growth suppression” (J Nat Prod, 2015):
The source made the active and inactive calls. The rule behind the calls is not given here.

Legend:
[1] = molecular target: Cellular tumor antigen p53 (Homo sapiens) (UniProt P04637); assay: Induction of wild type p53-dependent growth suppression of human MKN45 cells; assay type: cell-based; settings: MKN-45
[2] = system: Cellular tumor antigen p53 (Homo sapiens), P04637 [UNDEFINED MUTATION]; assay: Induction of p53 mutant-dependent growth suppression of human […] cells
Sequence of Cellular tumor antigen p53 (Homo sapiens), P04637 [UNDEFINED MUTATION] (P04637 whole entry, looked up, stated change not applied): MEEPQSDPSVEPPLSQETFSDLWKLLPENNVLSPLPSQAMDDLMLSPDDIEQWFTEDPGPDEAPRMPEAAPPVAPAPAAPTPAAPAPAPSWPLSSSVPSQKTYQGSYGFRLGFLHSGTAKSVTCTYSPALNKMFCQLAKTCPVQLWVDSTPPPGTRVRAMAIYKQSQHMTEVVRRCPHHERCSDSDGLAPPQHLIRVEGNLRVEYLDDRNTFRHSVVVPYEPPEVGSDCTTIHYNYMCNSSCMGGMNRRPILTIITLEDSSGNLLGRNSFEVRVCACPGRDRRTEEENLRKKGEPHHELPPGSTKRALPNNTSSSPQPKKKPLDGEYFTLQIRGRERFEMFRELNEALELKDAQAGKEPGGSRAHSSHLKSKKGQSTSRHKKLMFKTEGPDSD

[3] = system: Cellular tumor antigen p53 (Homo sapiens), P04637 [UNDEFINED MUTATION]; assay: Induction of p53 mutant-dependent growth suppression of human MKN7 cells; assay type: cell-based; settings: MKN-7
[4] = molecular target: Cellular tumor antigen p53 (Homo sapiens) (UniProt P04637); assay: Induction of wild type p53-dependent growth suppression of human MCF7 cells; assay type: cell-based
[5] = molecular target: Cellular tumor antigen p53 (Homo sapiens) (UniProt P04637); assay: Induction of wild type p53-dependent growth suppression of human RKO cells; assay type: cell-based
[6] = system: Cellular tumor antigen p53 (Homo sapiens), P04637 [UNDEFINED MUTATION]; assay: Induction of p53 mutant-dependent growth suppression of human HCT15 cells; assay type: cell-based; settings: HCT-15
[7] = (§1) Cytotoxicity against p53-deficient human LNZTA3 cells assessed as growth inhibition after 72 hrs by MTT assay; assay type: functional, cell-based; settings: LNZTA3, 72 h
[8] = molecular target: Cellular tumor antigen p53 (Homo sapiens) (UniProt P04637); assay: Induction of wild type p53-dependent growth suppression of human HCT116 cells; assay type: cell-based; settings: HCT-116
[9] = molecular target: Cellular tumor antigen p53 (Homo sapiens) (UniProt P04637); assay: Induction of p53-dependent growth suppression of human LNZTA3 cells after 72 hrs by MTT assay; assay type: cell-based
LNZTA3 [10] = assay: as §1; assay type: functional, cell-based
LNZTA3 [11] = assay: Cytotoxicity against p53-deficient human LNZTA3 cells assessed as growth inhibition at >100 uM after 72 hrs by MTT assay; assay type: functional, cell-based

Sequence of Cellular tumor antigen p53 (Homo sapiens) (P04637 whole entry, looked up): as the sequence (P04637 whole entry, looked up, stated change not applied) above

SMILES	Activity [1]	Activity [2]	Activity [3]	Activity [4]	Activity [5]	Activity [6]	Activity [8]	Activity [9]	IC50 [7] [µM]	growth inhibition (GI) (LNZTA3 [10])	growth inhibition (GI) (LNZTA3 [11])
O=C1c2cc(O[C@@H]3O[C@@H]([C@H](O)CO)[C@H](O)[C@H]3O)cc(O)c2C(=O)c2c1cc1c(c2O)[C@@H]2CCO[C@@H]2O1	Active	Active	Active	Active	Active	Active	Active	Active	–	Active	–
CCCCC[C@H](O)c1c(O[C@@H]2O[C@@H]([C@H](O)CO)[C@H](O)[C@H]2O)cc2c(c1O)C(=O)c1c(O)cc(O)cc1C2=O	Active	Active	Active	Active	Active	Active	Active	Active	–	Active	–
CCCCC[C@H](O)c1c(O)cc2c(c1O)C(=O)c1c(O)cc(O)cc1C2=O	–	–	–	–	–	–	–	Active	–	–	–
CC(=O)CCC[C@H](O[C@@H]1O[C@@H]([C@H](O)CO)[C@H](O)[C@H]1O)c1c(O)cc2c(c1O)C(=O)c1c(O)cc(O)cc1C2=O	Active	Active	Active	Active	Active	Active	Active	Active	–	–	inactive

Further lines, with some results ahead:

Activity [1]	Activity [2]	Activity [3]	Activity [4]	Activity [5]	Activity [6]	Activity [8]	Activity [9]	SMILES	IC50 [7] [µM]	growth inhibition (GI) (LNZTA3 [10])	growth inhibition (GI) (LNZTA3 [11])
Active	Active	Active	Active	Active	Active	Active	–	CCCCC[C@H](O[C@@H]1O[C@@H]([C@H](O)CO)[C@H](O)[C@H]1O)c1c(O)cc2c(c1O)C(=O)c1c(O)cc(O)cc1C2=O	32	–	–
Active	Active	Active	Active	Active	Active	Active	–	CCCCC[C@H](O[C@@H]1O[C@@H]([C@H](O)CO)[C@H](O)[C@H]1OC(C)=O)c1c(O)cc2c(c1O)C(=O)c1c(O)cc(O)cc1C2=O	32	–	–
